Laboratory results from patent publication US9045531B2, “HLA-binding peptide, precursor thereof, and DNA fragment and recombinant vector coding for said HLA-binding peptide” (NEC CORPORATION, priority 2006, dated 2015).
No end group written: not given here.

Columns and labels:
[1] = test system: HLA-A24 molecule (product of the HLA-A*2402 gene); assay: Experiment of binding peptide to HLA-A2402 molecule (C1R-A24 cells, flow cytometry); parameters: species or system human; settings: HLA-A24 (HLA-A*2402)
Protocol: The ability of a peptide to bind to an HLA-A24 molecule, which is a product of the HLA-A*2402 gene, was measured using C1R-A24 cells expressing the HLA-A24 gene (cells produced by Professor Masafumi Takiguchi, Kumamoto University being supplied with permission).
After neutralization, purified β2m was added to C1R-A24 cells, the obtained product was added to serial dilutions of a peptide, and incubated on ice for 4 hours.
Subsequently, the MHC-pep count per C1R-A24 cell (proportional to the strength of fluorescence of the above-mentioned fluorescent antibody) was quantitatively measured using a FACScan fluorescence-activated cell sorter (Becton Dickinson Biosciences). A binding dissociation constant Kd value between the HLA-A24 molecule and the peptide was calculated from the average strength of fluorescence per cell by a published method (Udaka et al., Immunogenetics, 51, 816-828, 2000).

[2] = test system: human HLA-A type molecule; assay: Binding experiments, summary statement for HLA-A type molecules; settings: summary of the binding experiments
Protocol: The ability of a peptide to bind to an HLA-A2 molecule, which is a product of the HLA-A*0201 gene, was measured using strain JY cells (obtained from ATCC (American Type Culture Collection)) expressing the HLA-A*0201.
The ability of a peptide to bind to an HLA-A2 molecule, which is a product of the HLA-A*0206 gene, was measured using RA2.6 cells (cell strain newly prepared in Kochi University) in which cDNA of the HLA-A*0206 gene is expressed in RAMS cells, which are mouse TAP peptide transporter deficient cells.

| Sequence | Binding Experiment Data (−log Kd value) [1] | binding to a human HLA-A type molecule (result in words) [2] |
| --- | --- | --- |
| ATNPIVPSF [SEQ ID NO: 6] | 7.564 | experimentally confirmed to bind |
| ATNPVVPSF [SEQ ID NO: 7] | 7.808 | experimentally confirmed to bind |
| ATSPIVPSF [SEQ ID NO: 9] | 7.802 | experimentally confirmed to bind |
| DMNNEGSYF [SEQ ID NO: 18] | 5.374 | experimentally confirmed to bind |
| DMSNEGSYF [SEQ ID NO: 16] | – | experimentally confirmed to bind |
| FQGRGVFEL [SEQ ID NO: 48] | – | experimentally confirmed to bind |
| GQISVQPTF [SEQ ID NO: 5] | 7.191 | experimentally confirmed to bind |
| IFLARSALI [SEQ ID NO: 4] | 8.012 | experimentally confirmed to bind |
| IYKRRDGKW [SEQ ID NO: 17] | 7.326 | experimentally confirmed to bind |
| IYKRREGKW [SEQ ID NO: 13] | 7.25 | experimentally confirmed to bind |
| IYRRRDGKW [SEQ ID NO: 10] | 7.497 | experimentally confirmed to bind |
| LIFLARSAL [SEQ ID NO: 52, LIFLARSAL] | – | experimentally confirmed to bind |
| LILYDKEEI [SEQ ID NO: 51] | – | experimentally confirmed to bind |
| LQNSQVFSL [SEQ ID NO: 49] | – | experimentally confirmed to bind |
| NLPFERATI [SEQ ID NO: 8] | 7.764 | – |
| NLPFERATI [SEQ ID NO: 25] | – | experimentally confirmed to bind |
| RLIQNSITI [SEQ ID NO: 3] | – | experimentally confirmed to bind |
| RLLQNSQVF [SEQ ID NO: 2] | 6.915 | experimentally confirmed to bind |
| RMVGGIGRF [SEQ ID NO: 14] | 7.543 | experimentally confirmed to bind |
| RMVSGIGRF [SEQ ID NO: 15] | 7.436 | experimentally confirmed to bind |
| SLPFERATI [SEQ ID NO: 11] | 7.719 | experimentally confirmed to bind |
| VGIDPFRLL [SEQ ID NO: 12] | 5.12 | experimentally confirmed to bind |
| WMACHSAAF [SEQ ID NO: 1] | – | experimentally confirmed to bind |
| YLEEHPSAG [SEQ ID NO: 21] | – | experimentally confirmed to bind |
| YLEENPSAG [SEQ ID NO: 26] | – | experimentally confirmed to bind |
